Columns and labels:
Type in all cases: cell-based, human
[1] = system: F+ cells (HbF-containing nucleated red cells) in cultures of mononuclear cells from adult blood; experiment: Erythroid culture of adult blood mononuclear cells; proportions of F+ cells by two-color flow cytometry
[2] = system: F+ cells (HbF-containing nucleated red cells) in cultures of mononuclear cells from adult blood; experiment: as above; remark: listed apart in the source
Protocol: (§1) Cells are fixed with 5% formaldehyde in PBS at 37° C. for 1 h, exposed to 100% methanol for 5 min at room temperature, then permeabilized in Solution B of the Caltag Fix & Perm kit during incubation with phycoerythrin-conjugated antibodies to the gamma chain of hemoglobin (HbF) (Cortex) and fluorescein isothiocyanate-conjugated antibodies to the beta chain of hemoglobin (HbA) or to fluorescein isothiocyanate-conjugated antibodies specific for sickle cell hemoglobin (HbS) (Isolabs). After incubation, cells are washed and suspended in PBS with 1% formaldehyde and 0.1 μg/ml Hoechst 33342.
(§2) Cells are processed in a Becton-Dickinson Vantage flow cytometer/cell sorter with dual laser excitation (UV and 488 nm). Intact nucleated cells are selected by gating on UV-excited Hoechst […] fluorescence (430 nm) which yielded DNA histograms as well as cell cycle information by BudR-induced fluorescence quenching. Bohmer, Cell Tissue Kinet. 12: 101-110 (1979). Phycoerythrin (PE) and Fluorescein isothiocyanate (FITC) are excited at 488 nm and measured at 530 nm and 575 nm, […]. Correlated fluorescence values are recorded with appropriate color compensation. The accuracy of color compensation over 4 logs of fluorescence values is limited. To obtain absolute cell counts from the relative particle counts that a flow cytometer provides, known amounts of fluorescent plastic beads (Coulter Immunobrite Level IV) are added to the cell suspensions. Bohmer, Cell Tissue Kinet. 17: 593-600 (1984).
Blood samples were kept at room temperature and processed as soon as possible (between 2 h and 24 h) after collection. The blood was diluted 1:4 with phosphate buffered saline (PBS), the mononuclear cells isolated by density gradient (density 1.077), washed in PBS with 1% BSA (bovine serum albumin) and cultured without further processing in standard 6-well plates, 3-5 ml per well, at a maximum density of 0.3 million/ml. The standard medium (referred to as “control” medium) comprised a mixture of 2/3 Iscoves MDM and 1/3 RPMI1640, containing methylcellulose (0.9%), C—CHS (1%), EPO (1 U/ml), SCF (20 ng/ml), IL3 (10 ng/ml), insulin (3 μg/ml), iron-saturated transferring (70 μg/ml), mercaptoethanol ([…]). Cytokines were from R&D Systems, Minneapolis, Minn. or Genzyme, Cambridge, Mass.
A relatively brief exposure to TGF-beta during the first few days of cell culture caused a lasting shift towards HbF expression with no reduction in subsequent clonal expansion (see data below). […]
The effect of TGF-beta treatment on cell cultures was examined and compared to the effect of serum. […] On day 7, cultures containing hundreds of colonies were turned into single-cell suspensions and the correlated contents of HbA and HbF measured by flow cytometry (FIG. 1). […]

[3] = system: F+ and F-A+ cells in cultures of mononuclear cells from adult blood; experiment: Absolute numbers of F+ and F-A+ cells per culture and long-term proliferation
Protocol: FIG. 5A is an example of a time course from one experiment. Cultures were treated with TGF-beta for 4 days, then propagated without TGF-beta, with further subcultivation and dilution on days 7 (1:10), 10 (1:5) and 13 (1:5). Absolute numbers of F+ and F−A+ cells per culture were determined on days 7, 10, 13 and 16. Total cell numbers were calculated using preceding culture dilution factors in the following manner: at each time of analysis, some of the cells were removed for counting, those that go back into the culture after counting are seeded with a dilution of fresh medium, to avoid medium exhaustion. Therefore, the actual numbers in the plates increase only between seeding and harvest. To calculate cell production over the whole culture time, it is necessary to multiply the counted cell numbers in the plates with all previous culture dilution factors. Closed symbols depict data from F−A+ cells, open symbols show F+ cells, and triangles show TGF-beta-treated cultures, while circles show the controls.
FIG. 5B is a graph indicating the TGF-beta-induced change of total F+ and F− cell numbers, shown as ratio of N(TGF)/N(CON). Cultures were treated with TGF-beta for 4 days., then propagated without TGF-beta, with further subcultivation and dilution on days 7 (1:10), 10 (1:5) and 13 (1:5). Absolute numbers of F+ and F−A+ cells per culture were determined on days 7, 10, 13 and 16. Individual experiments are distinguished by different symbols. […] Median values are indicated by horizontal bar.
as §2
Cultures that were treated with TGF-beta from day 0-4 were sub-cultivated again on days 7, 10 and 13, and the total numbers of F+ and F−A+ cells per culture were determined on days 7, 10, 13 and 16. […] Between day 7 and 10, both cell types in both cultures proliferated at approximately the same rate. After day 10, in control cultures, the proliferation decreased strongly and equally for both F+ and F−A+ cells, maintaining the ratio. No secondary colonies were seen following the subcultivation on day 13. In contrast, the proliferation in TGF-beta-treated cultures continued for much longer for both F+ and F−A+ cells. The F−A+ cell numbers were gradually reducing the gap with F+ cells, in agreement with the gradually decreasing proportions of F+ cells shown in FIG. 4. The number of days for which the proliferation of TGF-beta-treated cultures could be maintained was highly variable between donors and appeared to correlate with the initial numbers of clonogenic cells per ml of blood. […]

[4] = system: secondary erythroid colonies; experiment: Secondary erythroid colony counts after re-seeding (cell cycle effect); details: first few days of treatment
Protocol: Cell cultures were seeded in the presence (TGF) and absence (CON) of TGF-beta and on days 1, 2, 3 and 4 washed and re-seeded in the absence of TGF-beta. On day 9, the secondary colonies/clusters were counted and plotted as a function of the number of the day of treatment before reseeding. […] Statistics from 5 experiments are shown.
To test the cell cycle effect of TGF-beta during the first 4 days of treatment, the numbers of secondary erythroid colonies that developed upon re-seeding the cultures after different duration of TGF-beta exposure were counted (FIG. 7). A decrease in the number of secondary colonies upon re-seeding would reflect a decrease in the number of divisions undergone by colony forming cells before the cultures were re-seeded as a single-cell suspension. However, the secondary colonies became smaller and more numerous, without much effect of TGF-beta. The numbers of secondary colonies began to increase between day 1 and 2, equally in TGF-beta and controls. Between days 3 and 4 the beginnings of inhibition by TGF-beta could be seen.

[5] = system: Mononuclear cells from one sickle cell patient; experiment: Sickle cell erythropoiesis culture; HbF vs HbS flow cytometry profiles; details: continuous culture in 30% FCS or 10 ng/ml TGF-beta, day 7
Protocol: as §1
Mononuclear cells from one sickle cell patient were continuously cultured in 30% FCS or 10 ng/ml TGF-beta. The cells were labeled with the same antibodies to HbF but with antibodies specific for HbS instead of HbA.

TGF-beta 3: form of transforming growth factor beta titrated against TGF-beta 1
relative potency to increase proportions of F+ cells ([1]; titration, treatment began day 2, re-seeded day 4, F+ on day 7): in between TGF-beta 1 and TGF-beta 2

TGF-beta: recombinant human transforming growth factor beta-1
effect on proportions of F+ cells ([2]; 10 ng/ml, exposure day 0-4 or continuous, analysis day 7): increased the proportions of F+ cells dramatically
increased proportions of F+ cells during further culture growth ([2]; 4-day treatment, then control medium, re-seeded days 7 and 10): maintained
proportions of F+ cells, plateau ([2]; as function of exposure time (0-4 days), analysed day 7, 30% FCS or TGF-beta): 80%
total cell counts ([2]; continuous treatment up to day 7 (not the 4-day treatment)): strongly reduced total cell counts
N(TGF)/N(CON) of F+ cells ([3]; 2 (out of 5) experiments, proliferating beyond 3 weeks): exceeding 100
total numbers of F-A+ cells versus control cultures ([3]; between days 7 and 10, treatment day 0-4): dramatically reduced
reduction of F-A+ cell numbers ([3]; day 7, treatment day 0-4): ca. 10 fold
F+ cell numbers, ratio N(TGF)/N(CON) ([3]; day 7, treatment day 0-4, median): 1
F+ population level versus controls ([3]; on average, with increasing culture time, treatment day 0-4): ca. 10 fold
effect on cytokine-dependent proliferation (secondary colony numbers) [4]: did not interfere with cytokine-dependent proliferation
relative F+ cell numbers [5]: increase in relative F+ cell numbers
growth of newly developing secondary colonies ([1]; added from day 7, after approximately 2 days of treatment, 8-16-cell stage): complete and lasting growth arrest
effect on F+ proportions when added at later culture phase ([1]; newly supplied beginning on day 7): no effect on F+ proportions
proportions of F+ cells after exposure for only one day ([1]; one day exposure between days 2 and 4): substantially increased

B1: TGF-beta 2: form of transforming growth factor beta titrated against TGF-beta 1 (protein, UniProt P61812 303-414, looked up)
Transforming growth factor …: ALDAAYCFRNVQDNCCLRPLYIDFKRDLGWKWIHEPKGYNANFCAGACPYLWSSDTQHSRVLSLYNTINPEASASPCCVSQDLEPLTILYYIGKTPKIEQLSNMIVKSCKCS
modifications: Transforming growth factor beta-2
relative effectiveness versus TGF-beta 1 to increase proportions of F+ cells ([1]; titration, treatment began day 2, re-seeded day 4, F+ on day 7, average of two experiments): ~100 times
